# ChEMBL document CHEMBL1130605, “Conformationally restricted carbamate inhibitors of horse serum butyrylcholinesterase” (Bioorg Med Chem Lett, 1998)
# Experiments:
# [1] = target: Butyrylcholinesterase (Equus caballus) (UniProt Q9N1N9)
# Butyrylcholinesterase [2] = target: T1, Butyrylcholinesterase (Equus caballus, UniProt Q9N1N9); experiment: Tested for kinetic data for the horse serum Butyrylcholinesterase-Catalyzed Hydrolysis of Butyrylthiocholine; 10e-3/M. sec
# Butyrylcholinesterase [3] = target: T1, Butyrylcholinesterase; experiment: Compound was evaluated for irreversible inhibition of Horse serum Butyrylcholinesterase
# Butyrylcholinesterase [4] = target: T1, Butyrylcholinesterase; experiment: Compound was evaluated for its inhibitory concentration against Horse serum Butyrylcholinesterase
Structure (SMILES),k2 [1],Ki (Butyrylcholinesterase [2]),Ki (Butyrylcholinesterase [3]) [nM],IC50 (Butyrylcholinesterase [4]) [nM]
CCCCNC(=O)OC1C[C@H]2CCC1C2 (stereo in doubt; 1) [listing 1 of 2 here],2.2 10e-3 s-1,–,–,–
CCCCNC(=O)OC12CC3CC(CC(C3)C1)C2,1.5 10e-3 s-1,1.9 10e3* M-1 s-1,800,–
CCCCNC(=O)OC1C[C@H]2CCC1C2 (stereo in doubt; 1) [listing 2 of 2 here],–,110 10e3* M-1 s-1,20,–
CCCCNC(=O)OC1C2CC3CC(C2)CC1C3 (centres undefined),1.4 10e-3 s-1,1.8 10e3* M-1 s-1,800,–
CC[N+](C)(C)c1cccc(O)c1 [EDROPHONIUM BROMIDE],–,–,340000,–
CCCCNC(=O)OC1C[C@H]2CCC1C2 (stereo in doubt; 2) [listing 1 of 2 here],–,2.2 10e3* M-1 s-1,420,–
CNC(=O)Oc1ccc2c(c1)[C@]1(C)CCN(C)[C@@H]1N2C [PHYSOSTIGMINE],–,–,–,16
CCCCNC(=O)OC1C[C@H]2CCC1C2 (stereo in doubt; 2) [listing 2 of 2 here],0.92 10e-3 s-1,–,–,–
